Experimental data published in PMC3537142 (EMBO Reports, 2012).
Residue numbers refer to the chain shown, from its start.

Key:
[1] = target: T1, 5HTBP construct A1 B2 D1W (Aplysia californica, UniProt Q8WSF8, K160T/S111E/V159L/Y72W); experiment: SPR biosensor assay; conditions: construct A1B2D1W; stated for both [3H]granisetron binding and SPR
T1 sequence (Q8WSF8 20-236 Y72W/S111E/V159L/K160T): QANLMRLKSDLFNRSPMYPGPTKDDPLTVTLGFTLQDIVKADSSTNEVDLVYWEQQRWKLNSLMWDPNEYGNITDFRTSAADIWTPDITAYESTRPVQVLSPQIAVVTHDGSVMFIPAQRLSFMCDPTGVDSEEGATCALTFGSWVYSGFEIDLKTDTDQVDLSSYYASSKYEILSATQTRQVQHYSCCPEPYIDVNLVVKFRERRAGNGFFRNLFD

AChBPs = conditions: ref [4], [5]; cited from earlier work
5HTBP construct A1 B2 D2 = target: T2, 5HTBP construct A1 B2 D2 (Aplysia californica, UniProt Q8WSF8, K160T/Q74R/S111E/V159L/Y72W); experiment: Competition binding with [3H]granisetron; conditions: NB = no binding
T2 sequence (Q8WSF8 20-236 Y72W/Q74R/S111E/V159L/K160T): T1 sequence (Q8WSF8 20-236 Y72W/S111E/V159L/K160T) with Q55R

[2] = target: T3, 5HTBP construct D2 (Y53W, Q55R) (Aplysia californica, UniProt Q8WSF8, Q74R/Y72W); experiment: Competition binding with [3H]granisetron; conditions: read-out: Granisetron Ki, [3H]granisetron binding
T3 sequence (Q8WSF8 20-236 Y72W/Q74R): T1 sequence (Q8WSF8 20-236 Y72W/S111E/V159L/K160T) with Q55R, E92S, L140V, T141K

construct E1 = target: T4, construct E1 (Aplysia californica, UniProt Q8WSF8, I135Y); experiment: [3H]granisetron binding to single-loop construct
T4 sequence (Q8WSF8 20-236 I135Y): T1 sequence (Q8WSF8 20-236 Y72W/S111E/V159L/K160T) with W53Y, E92S, I116Y, L140V, T141K

[3] = target: T5, 5HTBP construct A1 (S92E) (Aplysia californica, UniProt Q8WSF8, S111E); experiment: Competition binding with [3H]granisetron; conditions: read-out: Ki, [3H]granisetron binding; single mutant construct A1 (S92E)
T5 sequence (Q8WSF8 20-236 S111E): T1 sequence (Q8WSF8 20-236 Y72W/S111E/V159L/K160T) with W53Y, L140V, T141K

construct E3 = target: T6, construct E3 (Aplysia californica, UniProt Q8WSF8, I123Y/I135Y/V125Y); experiment: [3H]granisetron binding to single-loop construct
T6 sequence (Q8WSF8 20-236 I123Y/V125Y/I135Y): T1 sequence (Q8WSF8 20-236 Y72W/S111E/V159L/K160T) with W53Y, E92S, I104Y, V106Y, I116Y, L140V, T141K

construct C5 = target: T7, construct C5 (Aplysia californica, UniProt Q8WSF8, C207M/C208E/E210S/P209S/P211N); experiment: [3H]granisetron binding to single-loop construct
T7 sequence (Q8WSF8 20-236 C207M/C208E/P209S/E210S/P211N): T1 sequence (Q8WSF8 20-236 Y72W/S111E/V159L/K160T) with W53Y, E92S, L140V, T141K, C188M, C189E, P190S, E191S, P192N

[4] = target: T8, construct A2NE (Y91N, S92E) (Aplysia californica, UniProt Q8WSF8, S111E/Y110N); experiment: [3H]granisetron binding to single-loop construct
T8 sequence (Q8WSF8 20-236 Y110N/S111E): T1 sequence (Q8WSF8 20-236 Y72W/S111E/V159L/K160T) with W53Y, Y91N, L140V, T141K

construct C6 = target: T9, construct C6 (Aplysia californica, UniProt Q8WSF8, C207E/C208S/E210N/INS206M/P209S/P211Y); experiment: [3H]granisetron binding to single-loop construct
T9 sequence (Q8WSF8 with tags, fused parts or gaps INS206M/C207E/C208S/P209S/E210N/P211Y): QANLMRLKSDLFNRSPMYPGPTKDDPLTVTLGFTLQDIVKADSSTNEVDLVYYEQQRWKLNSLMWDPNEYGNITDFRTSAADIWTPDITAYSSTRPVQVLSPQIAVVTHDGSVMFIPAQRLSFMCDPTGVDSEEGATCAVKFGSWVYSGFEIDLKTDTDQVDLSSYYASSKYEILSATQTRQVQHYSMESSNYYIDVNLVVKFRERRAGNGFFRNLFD

| SMILES | increase in the affinity compared with wild-type Ac-AChBP [1] [fold] | lower affinity than acetylcholine (AChBPs) [fold] | Granisetron Ki, [3H]granisetron binding (5HTBP construct A1 B2 D2) | Ki [2] [nM] | [3H]granisetron binding (construct E1) | Ki [3] [nM] | [3H]granisetron binding (construct E3) | [3H]granisetron binding (construct C5) | [3H]granisetron binding [4] | [3H]granisetron binding (construct C6) |
| --- | --- | --- | --- | --- | --- | --- | --- | --- | --- | --- |
| NCCc1c[nH]c2ccc(O)cc12 [Serotonin, 5-hydroxytryptamine] | ~40 | ~60 |  |  |  |  |  |  |  |  |
| CN1C2CCCC1CC(NC(=O)c1nn(C)c3ccccc13)C2 (stereo not shown) [[^3H]granisetron, [3H]BRL-43694] |  |  | no longer bound | 454 ± 71 | no detectable [^3H]granisetron binding | 270 ± 51 | no detectable [^3H]granisetron binding | did not show detectable [^3H]granisetron binding | failed to bind | did not show detectable [^3H]granisetron binding |
